{"source": "patent US9518976B2", "about": "“Methods for identifying or assaying for agents that increase beta-cell proliferation, insulin secretion, insulin sensitivity, glucose tolerance and decrease fat mass” (The Trustees of Columbia University in The City of New York, priority 2006, dated 2016)", "molecules": {"B1": {"name": "Osteocalcin: normal (Gla-containing) osteocalcin, small vitamin K-dependent calcium binding protein; literature data (protein, listed as Homo sapiens)", "chain": "MRALTLLALLALAALCIAGQAGAKPSGAESSKGAAFVSKQEGSEVVKRPRRYLYQWLGAPVPYPDPLEPRREVCELNPDCDELADHIGFQEAYRRFYGPV"}}, "key": {"Wild type adipocytes": {"tested_on": "Wild type adipocytes", "experiment": "Adiponectin expression in wt adipocytes treated with osteocalcin (real time PCR)", "format": "cell-based, mouse", "description": "(§1) FIG. 7. Esp−/− Mice Are a Model of Increased Osteocalcin Bioactivity. (A-G) Comparison between 6-week-old WT, Esp−/, Ocn+/−, and Esp−/−; Ocn+/− mice. (A) Blood glucose levels. (B) Serum insulin levels. (C) Serum adiponectin levels. (D) GTT. (E) ITT. (F) GSIS test. (G) Quantification of the number of Ki67-immunoreactive cells in pancreatic islets. […] (J) Expression of Adiponectin in WT adipocytes cocultured with osteoblasts treated with warfarin or vehicle. (K) Expression of Adiponectin in WT adipocytes cultured in presence of vehicle or of 1 ng/ml of commercially available carboxylated osteocalcin (Immunotopics) or bacterially produced uncarboxylated osteocalcin. (L) Expression of Insulin and Cyclin D1 in WT islets cultured in presence of 0.3 ng/ml of bacterially produced uncarboxylated osteocalcin or vehicle. (M) Metabolic parameters and total serum osteocalcin levels in control and obese patients. (N-O) Quantification of carboxylated osteocalcin (HA-bound osteocalcin) in control and obese patients. In (A)-(C) and (G)-(L): *p<0.05 versus WT (Student's t test); in (D)-(F), °p<0.05 versus WT and *p % 0.001 versus WT (ANOVA followed by post hoc analysis).\nFIG. 15. […] Wt adipocytes were treated for 4 hours with recombinant full-length osteocalcin (1-46) or a truncated form (1-36) or vehicle. Adiponectin expression was then quantified by real time PCR.\nPrimary adipocytes were isolated from epididymal fat pads by collagenase digestion. Briefly, minced adipose tissue was digested by 1 mg/ml collagenase P in KRP Buffer (20 mM HEPES, 120 mM NaCl, 6 mM KCl, 1.2 mM MgSO4, 1 mM CaCl2, 0.6 mM Na2HPO4, 0.4 mM NaH2PO4, 2.5 mM D-glucose, 2% BSA, pH 7.4) for 1 h at 37° C. The isolated cells were washed twice with KRP Buffer before being cultured in αMEM/1% FBS at 37° C. in 5% CO2.\n(§2) All gene expression analyses were performed using real time PCR. DNAse I-treated total RNA was converted to cDNA with the SuperScript III kit (Invitrogen). Real-time PCR were performed using the Taq SYBR Green Supermix with ROX (Biorad) on an MX3000 instrument (Stratagene); beta-actin amplification was used as an internal reference for each sample. All primers were from SuperArray.\nExperiments were performed to test whether truncated osteocalcin was as effective as full-length uncarboxylated osteocalcin in stimulating adiponectin secretion from mouse adipocytes in vitro. Wild type adipocytes were treated for 4 hours with recombinant full-length osteocalcin (1-46) or a truncated form (1-36) (having a deletion of the […] ten amino acids from the C-terminal end) or vehicle. Adiponectin expression was then quantified by real time PCR. […]"}, "beta-cells": {"tested_on": "beta-cells", "experiment": "Streptozotocin (STZ) injection in WT and Esp−/− mice: survival and blood glucose", "format": "in vivo, mouse", "conditions": "eight days after injection", "description": "FIG. 3. Esp−/− Mice Are Protected from Obesity and Glucose Intolerance. A-F) Food intake per day (A), body weight curve (B), fat pad mass (C), serum triglyceride levels (D), GTT (E), and ITT (F) in 4-month-old WT and Esp−/− mice 3 months after GTG or vehicle injection. (G-I) Body weight curve (G), GTT (H), and ITT (I) in 3 month-old WT and Esp−/− mice fed a high fat diet for 6 weeks. (J and K) Serum insulin levels (J) and pancreatic insulin content (K) in 1-month-old WT and Esp−/− mice 8 days after STZ or vehicle injection. (L and M) Survival of mice (L) and change of blood glucose levels (M) in 1-month-old WT and Esp−/− mice during the 8 days following STZ injection. (N) Urinary glucose assays in 1-month-old WT and Esp−/− mice 8 days after STZ injection. In (A)-(F), (J), and (K): a, WT versus Esp−/−; b, WT+GTG (or STZ) versus WT+vehicle; c, WT+GTG (or STZ) versus Esp−/−+GTG (or STZ); d, Esp−/−+GTG (or STZ) versus Esp−/−+vehicle. In (G)-(I) and (M), *p<0.05 WT versus Esp−/−. In (A), (C), (D), (J), and (K), Student's t test, p<0.05 for a-d; in (B), (E)-(I), (L), and (M), ANOVA followed by post hoc analysis when number of groups >2, p % 0.001 for a-d.\nFor glucose tolerance test (GTT), glucose (2 g/kg body weight (BW)) was injected intraperitoneally (IP) after an overnight fast and blood glucose was monitored using blood glucose strips and the Accu-Check glucometer (Roche) at indicated times. For glucose stimulated insulin secretion test (GSIS), glucose (3 g/kg BW) was injected IP after an overnight fast; sera were collected from tails and insulin measured as described (Mauvais-Jarvis et al., 2000). For insulin tolerance test (ITT), mice were fasted for six hours, injected IP with insulin (0.2 U/kg BW) and blood glucose levels were measured at indicated times as described (Mauvais-Jarvis et al., 2002). ITT data are presented as percentage of initial blood glucose concentration. Gold thioglucose (600 mg/kg BW, USP) was injected IP after an overnight fast, mice were sacrificed 3 months later for analysis. Streptozotocin ([…] single injection, Sigma) was injected IP and blood glucose measured as described above every 2 days thereafter. After 8 days, pancreases were isolated to measure insulin content as previously described (Mauvais-Jarvis et al., 2000). Food intake was measured using metabolic cages as the daily change of food weight. Energy expenditure was measured using metabolic cages connected to a calorimeter (Columbus Instrument). Heat values (Kcal/Hr) were recorded over 2 days and reported to each mouse BW.\nWhether the increase in insulin sensitivity could protect Esp−/− mice from pancreatic beta-cell failure was determined. […] Unlike STZ-treated WT mice, glucose could not be detected in urine of STZ-injected Esp−/− mice (FIG. 3N)."}, "gamma carboxylase": {"molecular_target": "T1, gamma carboxylase (Homo sapiens, UniProt P38435)", "T1 sequence (P38435 1-758)": "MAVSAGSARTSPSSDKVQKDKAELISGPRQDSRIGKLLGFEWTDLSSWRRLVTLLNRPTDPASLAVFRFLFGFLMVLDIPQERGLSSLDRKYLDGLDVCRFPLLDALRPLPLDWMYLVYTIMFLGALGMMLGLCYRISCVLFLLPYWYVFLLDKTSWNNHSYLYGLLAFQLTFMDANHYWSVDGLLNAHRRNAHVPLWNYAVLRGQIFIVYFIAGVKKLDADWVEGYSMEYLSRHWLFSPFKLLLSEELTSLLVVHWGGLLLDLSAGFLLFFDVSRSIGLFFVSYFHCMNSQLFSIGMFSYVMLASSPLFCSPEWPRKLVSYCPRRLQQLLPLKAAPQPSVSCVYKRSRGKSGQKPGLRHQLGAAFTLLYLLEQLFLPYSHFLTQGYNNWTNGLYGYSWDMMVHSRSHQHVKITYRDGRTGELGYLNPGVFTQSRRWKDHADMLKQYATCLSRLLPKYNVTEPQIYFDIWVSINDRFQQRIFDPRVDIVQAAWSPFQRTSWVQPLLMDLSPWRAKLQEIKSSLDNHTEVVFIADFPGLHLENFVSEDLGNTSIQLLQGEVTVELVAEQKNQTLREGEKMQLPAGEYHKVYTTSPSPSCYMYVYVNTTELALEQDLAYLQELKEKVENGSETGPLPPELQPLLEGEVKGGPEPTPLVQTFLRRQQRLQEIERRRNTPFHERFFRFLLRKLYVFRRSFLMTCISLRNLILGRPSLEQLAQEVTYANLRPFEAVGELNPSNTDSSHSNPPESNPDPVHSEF", "conditions": "thiol-specific inhibitors; cited from earlier work"}, "wild type osteoblasts": {"tested_on": "wild type osteoblasts", "experiment": "Isoproterenol on wild type osteoblasts: mRNA levels by quantitative PCR", "format": "cell-based, mouse", "method": "as §2\nIt was discovered that sympathetic nervous system (SNS) activity positively regulates Esp expression in osteoblasts. […] Thus, decreasing sympathetic activity should lead to a decrease in Esp expression and thereby to an increase in the undercarboxylated, active form of osteocalcin."}, "osteoblasts": {"tested_on": "osteoblasts", "experiment": "Osteocalcin/hydroxyapatite (HA) binding assay on medium of warfarin-treated osteoblasts", "format": "cell-based, mouse", "method": "Primary osteoblasts were prepared from calvaria of 5 day-old pups as previously described (Ducy et al., 2000a) and were cultured in αMEM/10% FBS in the presence of 100 μg/ml ascorbic acid and 5 mM β-glycerophosphate for 5 days. Skin fibroblasts were isolated by collagenase digestion (0.5 mg/ml) and were cultured in […]MEM/10% FBS. Twenty-four hours before addition of primary islets (or adipocytes), osteoblasts (or fibroblasts) were placed in αMEM/1% FBS. […] After 4 h of co-culture, either in the presence or absence of (1 μm) culture inserts (Falcon) islets (or adipocytes) were collected for RNA isolation using TRIZOL (Invitrogen).\nSera from 1 month-old mice, obese patients or supernatant from warfarin-treated osteoblast cultures were added to HA slurry to achieve a final concentration of 25 mg slurry/ml. After 15 min (mouse sera, supernatant) or 30 min (human sera), HA beads were pelleted by centrifugation and HA-bound osteocalcin was eluted with 0.5M sodium phosphate buffer, pH 8.0. Osteocalcin present in eluates and initial samples was measured by IRMA. Values represent percentage of HA-bound osteocalcin over initial osteocalcin content. Hauschka, P. V., et al., Physiol Review 69, 990-1047 (1989).\nTo determine whether this was the case, two additional experiments were performed. […] Second, carboxylated osteocalcin and bacterially produced mouse osteocalcin, which is not carboxylated, were used in cell-based assays. […] Lastly, we studied human obese patients that are hyperinsulinemic but not diabetic (FIG. 7M)."}, "WT adipocytes": {"tested_on": "WT adipocytes", "experiment": "Adiponectin expression in WT adipocytes cocultured with warfarin-treated osteoblasts", "format": "cell-based, mouse", "conditions": "adipocytes cocultured with warfarin-treated vs vehicle-treated osteoblasts (FIG. 7J)", "description": "as §1\nPrimary osteoblasts were prepared from calvaria of 5 day-old pups as previously described (Ducy et al., 2000a) and were cultured in αMEM/10% FBS in the presence of 100 μg/ml ascorbic acid and 5 mM β-glycerophosphate for 5 days. […]"}, "[1]": {"conditions": "osteoporotic patients, cited from earlier work"}, "[2]": {"conditions": "read-out: Kd to hydroxyapatite; cited from earlier work"}}, "note": "Ends that are not written are not given here."}
{"molecule": "1-36 fragment of uncarboxylated osteocalcin: Recombinant truncated mouse osteocalcin (1-36), ten amino acids deleted from the C-terminal end (YLGASVPSPDPLEPTREQCELNPACDELSDQYGLKT; not fully specified; ends and bridges not checked; UniProt P86546 50-85, looked up, fragment)", "values": [{"measurement": "Adiponectin expression increase", "setting": "Wild type adipocytes; wild type adipocytes treated for 4 hours, real time PCR, vs vehicle", "result": "~1.8", "unit": "fold"}, {"measurement": "potency in inducing adiponectin expression in vitro", "setting": "Wild type adipocytes; wt adipocytes, 4 hours (FIG. 15 legend)", "result": "as potent as native osteocalcin"}]}
{"molecule": "CN(N=O)C(=O)N[C@H]1C(O)O[C@H](CO)[C@@H](O)[C@@H]1O", "note": "(mixture of isomers) [STZ, streptozotocin]", "values": [{"measurement": "blood glucose level of surviving mice", "setting": "beta-cells; STZ-treated Esp−/− mice", "result": "≤ 250", "unit": "mg/dL"}, {"measurement": "mice died", "setting": "beta-cells; STZ-treated Esp−/− mice", "result": "one"}, {"measurement": "mice died", "setting": "beta-cells; STZ-treated WT mice", "result": "3 of the 7"}, {"measurement": "serum glucose levels of surviving mice", "setting": "beta-cells; STZ-treated WT mice", "result": "above 500 mg/dl"}]}
{"molecule": "CCN1C(=O)C=CC1=O", "note": "[N-ethylmaleimide (NEM), N-ethylmaleimide]", "values": [{"measurement": "inhibition of gamma carboxylase", "setting": "gamma carboxylase", "result": "inhibited"}]}
{"molecule": "CC(C)NCC(O)c1ccc(O)c(O)c1", "note": "(stereo not drawn) [isoproterenol]", "values": [{"measurement": "expression of gamma-carboxylase (ggcx)", "setting": "wild type osteoblasts", "result": "did not increase"}, {"measurement": "expression of osteocalcin", "setting": "wild type osteoblasts", "result": "did not increase"}, {"measurement": "expression of vkor", "setting": "wild type osteoblasts", "result": "did not increase"}, {"measurement": "increase of Esp expression", "setting": "wild type osteoblasts; at 8 hours", "result": "remains steady"}, {"measurement": "increase of Esp expression", "setting": "wild type osteoblasts; by 4 hours", "result": "about 80%"}]}
{"molecule": "O=C([O-])c1cc[c]([Hg][OH])cc1", "note": "[p-hydroxymurcuribenzoate (pHMB), p-hydroxymurcuribenzoate]", "values": [{"measurement": "inhibition of gamma carboxylase", "setting": "gamma carboxylase", "result": "inhibited"}]}
{"molecule": "CC(=O)CC(c1ccccc1)c1c(O)c2ccccc2oc1=O", "note": "(stereo not drawn) [warfarin]", "values": [{"measurement": "percentage of osteocalcin bound to HA", "setting": "osteoblasts; conditioned medium of warfarin-treated osteoblasts vs vehicle, 50 μM, 48 h, 15 min HA incubation", "result": "marked decrease"}, {"measurement": "osteocalcin secreted by osteoblasts", "setting": "osteoblasts; warfarin-treated osteoblasts (vehicle 10 ng/ml)", "result": 2, "unit": "ng/mL"}, {"measurement": "levels of undercarboxylated osteocalcin produced by osteoblasts", "setting": "osteoblasts; warfarin-treated vs vehicle-treated osteoblasts (FIG. 7I)", "result": "elevated"}, {"measurement": "adiponectin expression induced by treated osteoblasts", "setting": "WT adipocytes", "result": "significantly higher extent"}]}
{"molecule": "Vitamin D", "values": [{"measurement": "effect on undercarboxylated osteocalcin", "setting": "[1]; alone or together with Vitamin K", "result": "no significant effect"}]}
{"molecule": "Vitamin K", "values": [{"measurement": "percentage mean decrease in undercarboxylated osteocalcin", "setting": "[1]; four weeks of treatment, vs controls without Vitamin K", "result": 85, "unit": "%"}]}
{"molecule": "carboxylated osteocalcin: commercially available carboxylated osteocalcin (Immunotopics) (YLYQWLGAPVPYPDPLEPRREVCELNPDCDELADHIGFQEAYRRFYGPV; ends and bridges not checked; also: carboxylated (Gla) residues, sites not given here; UniProt P02818 52-100, looked up) [reference compound]", "values": [{"measurement": "induction of adiponectin expression", "setting": "Wild type adipocytes; WT adipocytes, 1 ng/ml (FIG. 7K)", "result": "failed to induce"}]}
{"molecule": "B1", "values": [{"measurement": "Kd", "setting": "[2]", "result": "~100", "unit": "nM"}]}
